Laboratory results published in the supplement of paper PMC10307832.

How the values were obtained:
Assay in all cases: relative viability (nuclei count vs DMSO), 5 days (fraction); higher = more cells survive
[1] = system: NCI-H3122
Outline: (§1)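 Relative viability divides the nuclei count in treated wells by that in vehicle wells. Lung cancer cell lines were seeded in 1536-well plates, dosed by pin tool the next day, and fixed and stained after 5 days in one step with final 0.05% Triton X-100, 1% formaldehyde and 1 ug/ml Hoechst. Dosing was a single drug or a fixed anchor-drug dose plus five library-drug doses (not always all listed) in √10 steps, and values are medians of duplicate plates imaged at 4×.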

[2] = system: NCI-H2170
Outline: as §1

[3] = system: NCI-H1915
Outline: as §1

[4] = system: NCI-H2023
Outline: as §1

[5] = system: NCI-H1755
Outline: as §1

[6] = system: EMC-BAC-2
Outline: as §1

[7] = system: NCI-H727
Outline: as §1

[8] = system: NCI-H358
Outline: as §1

[9] = system: NCI-H650
Outline: as §1

[10] = system: HCC-15
Outline: as §1

[11] = system: SW 1573
Outline: as §1

[12] = system: NCI-H2126
Outline: as §1

[13] = system: NCI-H1395
Outline: as §1

[14] = system: NCI-H1563
Outline: as §1

[15] = system: NCI-H1437
Outline: as §1

[16] = system: BEN
Outline: as §1

[17] = system: LU99A
Outline: as §1

[18] = system: NCI-H1734
Outline: as §1

[19] = system: SW 900
Outline: as §1

[20] = system: HOP-62
Outline: as §1

[21] = system: LC-2-ad
Outline: as §1

[22] = system: HCC-44
Outline: as §1

CN1CCN(CCOc2cc(OC3CCOCC3)c3c(Nc4c(Cl)ccc5c4OCO5)ncnc3c2)CC1 [Saracatinib] + COc1cccc2cc(-c3nc([C@H]4CC[C@H](C(=O)O)CC4)n4ncnc(N)c34)[nH]c12 [OSI-027] (partner 0.5 µM)
relative viability ([1]; first compound 0.02 µM): 0.957 | relative viability ([1]; first compound 0.2 µM): 0.357 | relative viability ([1]; first compound 0.6325 µM): 0.968 | relative viability ([1]; first compound 2 µM): 0.718 | relative viability ([2]; first compound 0.02 µM): 0.694 | relative viability ([2]; first compound 0.2 µM): 0.459 | relative viability ([2]; first compound 0.6325 µM): 0.811 | relative viability ([2]; first compound 2 µM): 0.53 | relative viability ([3]; first compound 0.02 µM): 0.623 | relative viability ([3]; first compound 0.2 µM): 0.408 | relative viability ([3]; first compound 0.6325 µM): 0.587 | relative viability ([3]; first compound 2 µM): 0.474 | relative viability ([4]; first compound 0.02 µM): 0.473 | relative viability ([4]; first compound 0.2 µM): 0.394 | relative viability ([4]; first compound 0.6325 µM): 0.316 | relative viability ([4]; first compound 2 µM): 0.273 | relative viability ([5]; first compound 0.02 µM): 0.691 | relative viability ([5]; first compound 0.2 µM): 0.643 | relative viability ([5]; first compound 0.6325 µM): 0.706 | relative viability ([5]; first compound 2 µM): 0.634 | relative viability ([6]; first compound 0.02 µM): 0.412 | relative viability ([6]; first compound 0.2 µM): 0.322 | relative viability ([6]; first compound 0.6325 µM): 0.355 | relative viability ([6]; first compound 2 µM): 0.297 | relative viability ([7]; first compound 0.02 µM): 0.496 | relative viability ([7]; first compound 0.2 µM): 0.463 | relative viability ([7]; first compound 0.6325 µM): 0.529 | relative viability ([7]; first compound 2 µM): 0.485 | relative viability ([8]; first compound 0.02 µM): 0.707 | relative viability ([8]; first compound 0.2 µM): 0.391 | relative viability ([8]; first compound 0.6325 µM): 0.466 | relative viability ([8]; first compound 2 µM): 0.289 | relative viability ([9]; first compound 0.02 µM): 0.602 | relative viability ([9]; first compound 0.2 µM): 0.504 | relative viability ([9]; first compound 0.6325 µM): 0.524 | relative viability ([9]; first compound 2 µM): 0.493 | relative viability ([10]; first compound 0.02 µM): 0.806 | relative viability ([10]; first compound 0.2 µM): 0.586 | relative viability ([10]; first compound 0.6325 µM): 0.708 | relative viability ([10]; first compound 2 µM): 0.605 | relative viability ([11]; first compound 0.02 µM): 0.624 | relative viability ([11]; first compound 0.2 µM): 0.55 | relative viability ([11]; first compound 0.6325 µM): 0.667 | relative viability ([11]; first compound 2 µM): 0.456 | relative viability ([12]; first compound 0.02 µM): 0.8 | relative viability ([12]; first compound 0.2 µM): 0.672 | relative viability ([12]; first compound 0.6325 µM): 0.662 | relative viability ([12]; first compound 2 µM): 0.589 | relative viability ([13]; first compound 0.02 µM): 0.618 | relative viability ([13]; first compound 0.2 µM): 0.613 | relative viability ([13]; first compound 0.6325 µM): 0.583 | relative viability ([13]; first compound 2 µM): 0.485 | relative viability ([14]; first compound 0.02 µM): 0.703 | relative viability ([14]; first compound 0.2 µM): 0.663 | relative viability ([14]; first compound 0.6325 µM): 0.645 | relative viability ([14]; first compound 2 µM): 0.711 | relative viability ([15]; first compound 0.02 µM): 0.913 | relative viability ([15]; first compound 0.2 µM): 0.671 | relative viability ([15]; first compound 0.6325 µM): 0.96 | relative viability ([15]; first compound 2 µM): 0.812 | relative viability ([16]; first compound 0.02 µM): 0.284 | relative viability ([16]; first compound 0.6325 µM): 0.309 | relative viability ([16]; first compound 2 µM): 0.261 | relative viability ([17]; first compound 0.02 µM): 0.317 | relative viability ([17]; first compound 0.2 µM): 0.283 | relative viability ([17]; first compound 0.6325 µM): 0.303 | relative viability ([17]; first compound 2 µM): 0.277 | relative viability ([18]; first compound 0.02 µM): 0.635 | relative viability ([18]; first compound 0.6325 µM): 0.571 | relative viability ([18]; first compound 2 µM): 0.507 | relative viability ([19]; first compound 0.02 µM): 0.616 | relative viability ([19]; first compound 0.2 µM): 0.559 | relative viability ([19]; first compound 0.6325 µM): 0.575 | relative viability ([19]; first compound 2 µM): 0.443 | relative viability ([20]; first compound 0.02 µM): 0.836 | relative viability ([20]; first compound 0.2 µM): 0.796 | relative viability ([20]; first compound 0.6325 µM): 0.794 | relative viability ([20]; first compound 2 µM): 0.773 | relative viability ([21]; first compound 0.02 µM): 0.844 | relative viability ([21]; first compound 0.2 µM): 0.804 | relative viability ([21]; first compound 0.6325 µM): 0.881 | relative viability ([21]; first compound 2 µM): 0.728 | relative viability ([22]; first compound 0.02 µM): 0.483 | relative viability ([22]; first compound 0.2 µM): 0.522 | relative viability ([22]; first compound 0.6325 µM): 0.592 | relative viability ([22]; first compound 2 µM): 0.543
